Numbered stars: 1 amine (or outer) side, 2 acyl side, 3 side chain; on linkers, the order of the positions; unused ones are H or OH. Square brackets hold non-standard residues; d marks the D form. Peptide text beside a SMILES is read from it. * marks the point of attachment. X2 = O=C(O)CN(CC(=O)O)c1ccc(-c2c3cc(F)c(=O)cc-3oc3cc(O)c(F)cc23)cc1OCC(=O)*; X1 = O=C([C@H](CO)N(c1ccc([N+](=O)[O-])c2nonc12)[*:1])[*:2]; Acridine9carbonyl = O=C(c1c2ccccc2nc2ccccc12)*; Dansyl = CN(C)c1cccc2c(S(=O)(=O)*)cccc12; Cysteamide = C(CS[*:3])N[*:1]; Sar = CNCC(=O)O
Legend:
Type in all cases: biochemical
PKCα [1] = molecular target: T1, PKCα (Homo sapiens, UniProt P17252); assay: Protein kinase C assay (Example II); details: for Km / Vmax: PKC-catalyzed phosphorylation; for % Change Fluorescence: upon PKC-catalyzed phosphorylation
Experimental: Protein kinase C assay. The kinase-catalyzed reaction was performed in triplicate at 30° C. and initiated by addition of ATP to a solution of PKCα and fluorophore-appended peptide substrate 23 (except in the case of the library, where the assays were performed in a 96 well plate using a fluorescence plate reader). Final conditions: 62.5 mM HEPES, 3 mM MgCl2, 0.3 mM CaCl2, 0.1 mM EGTA, 1 mM DTT, 0.5 μg/mL phosphatidylserine, 0.1 μg/mL diacylglycerol, 1 mM ATP, and 13 nM PKCα (pH 7.4). After the addition of ATP, the solution was gently mixed and the time-dependent change in fluorescent intensity (λexcitation=[…]; λemission=521 nm) continuously monitored with a Photon Technology QM-1 spectrofluorimeter.

protein kinase C = assay: Screen of fluorophore-peptide library for fluorescence change in the presence of PKC and ATP; details: Table 3 library
Experimental: (§1) Fluorescent PKC assay-Fluorescence assays were performed in triplicate at 30° C. and initiated by addition of ATP to a 100 μL cuvette containing a 50 μL solution of PKC and peptide substrate 2. Final conditions: 62.5 mM HEPES pH 7.4, 3 mM MgCl2, 0.3 mM CaCl2, 0.1 mM EGTA, 1 mM DTT, 0.5 μg/mL phosphatidylserine, 0.1 μg/mL diacylglycerol, 1 mM ATP, and 13 nM PKC. After the addition of ATP, the solution was gently mixed and the time-dependent change in fluorescent intensity (excitation: 520 nm, emission: […]) continuously monitored with a Photon Technology QM-1 spectrofluorimeter.
The peptide H2N-Ser-Phe-Arg-Arg-Arg-Arg-Lys-amide (1) (SEQ ID NO:2) was prepared using an Fmoc-based protocol, spatially segregated, and the free N-terminal amine subsequently modified with an array of fluorophore-containing carboxylic acids (I), aromatic aldehydes (II), and electron deficient aryl halides (III). […] This spatially segregated fluorophore-substituted peptide-based library contains a total of 415 distinct chemical entities (Table 3) and was screened for changes in fluorescence intensity in the presence of PKC and ATP under activating conditions. […] The obvious explanation is that phosphorylation of the peptide fails to induce the desired change in photophysical properties of the appended fluorophore. However, it is also possible that introduction of fluorophores, at various sites along the peptide framework, interferes with PKC-catalyzed phosphorylation. The latter possibility is unlikely, particularly for simple N-monosubstituted peptides, since PKC will phosphorylate peptides containing a wide variety of structurally diverse functionality attached at and/or near the phosphorylatable serine moiety.^24 Nevertheless, a few representative members of the library were evaluated in depth (Table 1). […]. One explanation for the poor fluorescence response of these particular peptides to PKC/ATP could be that these peptides serve as poor PKC substrates. This possibility was addressed by obtaining the PKCα-catalyzed Km and Vmax values using the [γ-^32P]ATP radioactive method.^25 As is clear from Table 1, all five peptides are reasonably effective substrates for PKCα.
Table 3. Structures of 415 compounds tested. The % change observed in fluorescence intensity upon phosphorylation of the compound by protein kinase C is shown in the right column. […] The compound labeled as compound 21 in Table 3 is the same as compound 2 in Example I, which is also shown in Scheme 2.

PKCα [2] = molecular target: T1, PKCα; assay: Fluorescent PKC assay (spectrofluorimetry); details: for Fluorescence enhancement upon phosphorylation (% Change): PKCα-catalyzed phosphorylation, spectrofluorimetry
Experimental: as §1

PKCα [3] = molecular target: T1, PKCα; assay: Radioactive PKC assay ([γ-32P]ATP); details: Table 2
Experimental: Radioactive PKC Assay—Radioactive assays were performed in duplicate at 30° C. The final assay volume totaled 40 μl and contained 62.5 mM HEPES (pH 7.4), 0.75 mM CaCl2, 12.5 mM MgCl2, 1 mM dithiothreitol, 0.5 mM EGTA, 7.5 μg/mL phosphatidylserine, 1.6 μg/mL diacylglycerol, and 10 ng of PKC. […] Phosphorylation reactions were initiated by the addition of 10 μL of PKC from a stock solution (20 mM Tris-HCl at pH 7.5, 1 mM dithiothreitol, 1 mM EDTA, and 0.75 mg/mL bovine serum albumin) into 30 μL of assay buffer containing peptide substrate. Reactions were terminated after 5 min by spotting 25 μL aliquots onto phosphocellulose paper disks (2.1 cm in diameter). After 10 s, the disks were immersed in 10% glacial acetic acid and soaked with occasional stirring for at least 1 h. The acetic acid was decanted and the disks were collectively washed with four volumes of 0.5% H3PO4, 1 volume of water, followed by a final acetone rinse. The disks were air dried and then counted in a Beckman LS scintillation counter.

Compound | % change observed in fluorescence intensity upon phosphorylation of the compound by protein kinase C (protein kinase C) [%] | further results
D-proline |  | Km (PKCα [1]): 23.5 µM; Vmax (PKCα [1]): 1.0 µmol/min/mg; % Change Fluorescence (PKCα [1]): 156%
N=C(N)NNC1=c2cc3ccccc3cc2=CC1C(CO)C(=O)NC(C(=O)NC(NC(=N)N)C(=O)NC(NC(=N)N)C(=O)NC(NC(=N)N)C(=O)NC(NC(=N)N)C(=O)NC(N)C(N)=O)c1ccccc1 (stereo not shown) [Compound 92] | <10 | 
N#CC1=c2cc3ccccc3cc2=CC1C(CO)C(=O)NC(O)C(=O)NC(C(=O)NC(NC(=N)N)C(=O)NC(NC(=N)N)C(=O)NC(NC(=N)N)C(=O)NC(NC(=N)N)C(=O)NC(N)C(N)=O)c1ccccc1 (stereo not shown) [Compound 90] | <10 | 
N=C(N)NC(NC(=O)C(NC(=N)N)NC(=O)C(NC(=N)N)NC(=O)C(NC(=N)N)NC(=O)C(NC(=O)C(O)NC(=O)C(CO)C1C=c2cc3ccccc3cc2=C1NN)c1ccccc1)C(=O)NC(N)C(N)=O (stereo not shown) [Compound 88] | <10 | 
N=C(N)NC(NC(=O)C(NC(=N)N)NC(=O)C(NC(=N)N)NC(=O)C(NC(=N)N)NC(=O)C(NC(=O)C(O)N1C=C(c2ccccc2)C(=O)C1(O)c1ccccc1C(=O)O)c1ccccc1)C(=O)NC(N)C(N)=O (stereo not shown) [Compound 78] | <10 | 
N#CC1=c2cc3ccccc3cc2=CC1C(=N)NC(O)C(=O)NC(C(=O)NC(NC(=N)N)C(=O)NC(NC(=N)N)C(=O)NC(NC(=N)N)C(=O)NC(NC(=N)N)C(=O)NC(N)C(N)=O)c1ccccc1 (stereo not shown) [Compound 86] | <10 | 
H2N-Ser-Phe-Arg4-Lys(NBD)-amide [peptide 3] |  | fluorescence intensity change following phosphorylation (in words) (PKCα [2]; PKC/ATP, fluorescence assay): No Fluorescence Intensity Change; Km (PKCα [3]): 19 ± 1 µM; kcat (PKCα [3]): 3.5 ± 0.167 s⁻¹
COCCN(CCOC)C1=c2cc3ccccc3cc2=CC1C(CO)C(=O)NC(C(=O)NC(NC(=N)N)C(=O)NC(NC(=N)N)C(=O)NC(NC(=N)N)C(=O)NC(NC(=N)N)C(=O)NC(N)C(N)=O)c1ccccc1 (stereo not shown) [Compound 93] | <10 | 
N=C(N)NC(NC(=O)C(NC(=N)N)NC(=O)C(NC(=N)N)NC(=O)C(NC(=N)N)NC(=O)C(NC(=O)c1ccc2c3c4c(ccc13)C=CCC4=CC2)NC(=O)C(O)Nc1ccc([N+](=O)[O-])c2nonc12)C(N)=O (stereo not shown) [Compound 73] | <10 | 
N=C(N)NCCC[C@H](NC(=O)[C@H](CCCNC(=N)N)NC(=O)[C@H](CCCNC(=N)N)NC(=O)[C@H](CCCNC(=N)N)NC(=O)[C@H](Cc1ccccc1)NC(=O)[C@H](CO)Nc1ccc([N+](=O)[O-])c2nonc12)C(=O)N[C@@H](CCCCN)C(N)=O (H-[X1]FRRRRK-NH2) |  | Fluorescence enhancement upon phosphorylation (% Change) (PKCα [2]): 150%
N=C(N)NC(NC(=O)C(NC(=N)N)NC(=O)C(NC(=N)N)NC(=O)C(NC(=N)N)NC(=O)C(NC(=O)C(O)/N=C/c1cc([N+](=O)[O-])cc([N+](=O)[O-])c1O)c1ccccc1)C(=O)NC(N)C(N)=O (stereo not shown) [Compound 55] | <10 | 
CN(C)c1cccc2c(S(=O)(=O)NC(=N)NC(O)C(=O)NC(C(=O)NC(NC(=N)N)C(=O)NC(NC(=N)N)C(=O)NC(NC(=N)N)C(=O)NC(NC(=N)N)C(=O)NC(N)C(N)=O)c3ccccc3)cccc12 (stereo not shown) [Compound 85] | <10 | 
CN(CC(=O)N[C@@H](CO)C(=O)N[C@@H](Cc1ccccc1)C(=O)N[C@@H](CCCNC(=N)N)C(=O)N[C@@H](CCCNC(=N)N)C(=O)N[C@@H](CCCNC(=N)N)C(=O)N[C@@H](CCCNC(=N)N)C(=O)NCCS)C(=O)COc1cc(-c2c3cc(F)c(=O)cc-3oc3cc(O)c(F)cc23)ccc1N(CC(=O)O)CC(=O)O [N-Me glycine] (X2-[Sar]SFRRRR-Cysteamide) |  | % Change Fluorescence (PKCα [1]): 264%
N=C(N)NC(NC(=O)C(NC(=N)N)NC(=O)C(NC(=N)N)NC(=O)C(NC(=N)N)NC(=O)C(NC(=O)C(O)NC(=O)C(CO)C1C=c2cc3ccccc3cc2=C1SC(=N)N)c1ccccc1)C(=O)NC(N)C(N)=O (stereo not shown) [Compound 91] | <10 | 
CCCCCCCCCC(=O)NCCCCC(CNS(=O)(=O)c1cccc2c(N(C)C)cccc12)NC(O)C(=O)NC(C(=O)NC(NC(=N)N)C(=O)NC(NC(=N)N)C(=O)NC(NC(=N)N)C(=O)NC(NC(=N)N)C(=O)NC(N)C(N)=O)c1ccccc1 (stereo not shown) [Compound 82] | <10 | 
N=C(N)NC(NC(=O)C(NC(=N)N)NC(=O)C(NC(=N)N)NC(=O)C(NC(=N)N)NC(=O)C(NC(=O)C(O)NC(=N)Nc1ccc(NOO)c2nonc12)c1ccccc1)C(=O)NC(N)C(N)=O (stereo not shown) [Compound 87] | <10 | 
N=C(N)NCCC[C@H](NC(=O)[C@H](CCCNC(=N)N)NC(=O)[C@H](CCCNC(=N)N)NC(=O)[C@H](CCCNC(=N)N)NC(=O)[C@H](Cc1ccccc1)NC(=O)[C@H](CO)NC(=O)c1c2ccccc2nc2ccccc12)C(=O)N[C@@H](CCCCN)C(N)=O (Acridine9carbonyl-SFRRRRK-NH2) |  | Fluorescence enhancement upon phosphorylation (% Change) (PKCα [2]): 20%
N=C(N)NC(NC(=O)C(NC(=N)N)NC(=O)C(NC(=N)N)NC(=O)C(NC(=N)N)NC(=O)C(NC(=O)Cc1cc(=O)oc2cc(O)ccc12)NC(=O)C(O)Nc1ccc([N+](=O)[O-])c2nonc12)C(N)=O (stereo not shown) [Compound 75] | <10 | 
L-proline |  | Km (PKCα [1]): 63 µM; Vmax (PKCα [1]): 1.9 µmol/min/mg; % Change Fluorescence (PKCα [1]): 150%
N=C(N)NC(NC(=O)C(NC(=N)N)NC(=O)C(NC(=N)N)NC(=O)C(NC(=N)N)NC(=O)C(NC(=O)C(O)N=C1N=c2c(c3ccccc3c3ccccc23)=N1)c1ccccc1)C(=O)NC(N)C(N)=O (stereo not shown) [Compound 77] | <10 | 
CNCC(=O)O [N-methyl glycine] |  | % Change Fluorescence (PKCα [1]): 264%
N=C(N)NC1=c2cc3ccccc3cc2=CC1C(CO)C(=O)NC(O)C(=O)NC(C(=O)NC(NC(=N)N)C(=O)NC(NC(=N)N)C(=O)NC(NC(=N)N)C(=O)NC(NC(=N)N)C(=O)NC(N)C(N)=O)c1ccccc1 (stereo not shown) [Compound 89] | <10 | 
CCCCCC(=O)NCCCCC(CNS(=O)(=O)c1cccc2c(N(C)C)cccc12)NC(O)C(=O)NC(C(=O)NC(NC(=N)N)C(=O)NC(NC(=N)N)C(=O)NC(NC(=N)N)C(=O)NC(NC(=N)N)C(=O)NC(N)C(N)=O)c1ccccc1 (stereo not shown) [Compound 81] | <10 | 
CN(C)c1cccc2c(S(=O)(=O)N[C@@H](CO)C(=O)N[C@@H](Cc3ccccc3)C(=O)N[C@@H](CCCNC(=N)N)C(=O)N[C@@H](CCCNC(=N)N)C(=O)N[C@@H](CCCNC(=N)N)C(=O)N[C@@H](CCCNC(=N)N)C(=O)N[C@@H](CCCCN)C(N)=O)cccc12 (Dansyl-SFRRRRK-NH2) |  | Fluorescence enhancement upon phosphorylation (% Change) (PKCα [2]): 20%
N=C(N)NC(NC(=O)C(NC(=N)N)NC(=O)C(NC(=N)N)NC(=O)C(NC(=N)N)NC(=O)C(NC(=O)C(O)Nc1ccc(N)cc1)c1ccccc1)C(=O)NC(N)C(N)=O (stereo not shown) [Compound 76] | <10 | 

Reference: US7759459B2, “Fluorescent assays for protein kinases” (Albert Einstein College of Medicine of Yeshiva University, priority 2003, dated 2010)
